Assay results as given in PMC10893631, “Receptor-based pharmacophore modeling, molecular docking, synthesis and biological evaluation of novel VEGFR-2, FGFR-1, and BRAF multi-kinase inhibitors” (BMC Chemistry, 2024).

How the values were obtained:
Assay in all cases: NCI SRB growth inhibition (single dose 10 µM / five-dose)
Type in all cases: cell-based, human
[1] = test system: 786–0; conditions: Homo sapiens; for inhibition at 10 µM: 786–0 (Renal cancer), read-out: GI%; for GI50: 786–0, Renal cancer, five-dose
Method in brief: (§1)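 Percent growth relative to untreated control and time-zero cell mass, determined by SRB. Five drug levels (10-fold or half-log steps) plus control; time-zero plates fixed 24 h after seeding.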

[2] = test system: A498; conditions: Homo sapiens; for inhibition at 10 µM: A498 (Renal cancer), read-out: GI%; for GI50: A498, Renal cancer, five-dose
Method in brief: as §1

[3] = test system: A549/ATCC; conditions: Homo sapiens; for inhibition at 10 µM: A549/ATCC (Non-small cell lung cancer), read-out: GI%; for GI50: A549/ATCC, Non-small cell lung cancer, five-dose
Method in brief: as §1

[4] = test system: ACHN; conditions: Homo sapiens; for inhibition at 10 µM: ACHN (Renal cancer), read-out: GI%; for GI50: ACHN, Renal cancer, five-dose
Method in brief: as §1

[5] = test system: BT-549; conditions: Homo sapiens; for inhibition at 10 µM: BT-549 (Breast cancer), read-out: GI%; for GI50: BT-549, Breast cancer, five-dose
Method in brief: as §1

[6] = test system: CAKI-1; conditions: Homo sapiens; for inhibition at 10 µM: CAKI-1 (Renal cancer), read-out: GI%; for GI50: CAKI-1, Renal cancer, five-dose
Method in brief: as §1

[7] = test system: CCRF-CEM; conditions: Homo sapiens; for inhibition at 10 µM: CCRF-CEM (Leukemia), read-out: GI%; for GI50: CCRF-CEM, Leukemia, five-dose
Method in brief: as §1

[8] = test system: COLO 205; conditions: Homo sapiens; for GI50: COLO 205, Colon cancer, five-dose
Method in brief: as §1

[9] = test system: HCT-116; conditions: Homo sapiens, HCT-116; for inhibition at 10 µM: read-out: GI%
Method in brief: as §1

[10] = test system: HCT-15; conditions: Homo sapiens; for inhibition at 10 µM: HCT-15 (Colon cancer), read-out: GI%; for GI50: HCT-15, Colon cancer, five-dose
Method in brief: as §1

[11] = test system: HS 578 T; conditions: Homo sapiens; for inhibition at 10 µM: HS 578 T (Breast cancer), read-out: GI%; for GI50: HS 578 T, Breast cancer, five-dose
Method in brief: as §1

[12] = test system: IGROV1; conditions: Homo sapiens, IGROV-1; for inhibition at 10 µM: IGROV1 (Ovarian cancer), read-out: GI%; for GI50: IGROV1, Ovarian cancer, five-dose
Method in brief: as §1

[13] = test system: K-562; conditions: Homo sapiens, K562; for inhibition at 10 µM: K-562 (Leukemia), read-out: GI%; for GI50: K-562, Leukemia, five-dose
Method in brief: as §1

[14] = test system: KM12; conditions: Homo sapiens; for inhibition at 10 µM: KM12 (Colon cancer), read-out: GI%; for GI50: KM12, Colon cancer, five-dose
Method in brief: as §1

[15] = test system: MALME-3 M; conditions: Homo sapiens; for inhibition at 10 µM: MALME-3 M (Melanoma), read-out: GI%; for GI50: MALME-3 M, Melanoma, five-dose
Method in brief: as §1

[16] = test system: MDA-MB-231/ATCC; conditions: Homo sapiens; for inhibition at 10 µM: MDA-MB-231/ATCC (Breast cancer), read-out: GI%; for GI50: MDA-MB-231/ATCC, Breast cancer, five-dose
Method in brief: as §1

[17] = test system: MDA-MB-435; conditions: Homo sapiens; for inhibition at 10 µM: MDA-MB-435 (Melanoma), read-out: GI%; for GI50: MDA-MB-435, Melanoma, five-dose
Method in brief: as §1

[18] = test system: NCI/ADR-RES; conditions: Homo sapiens; for inhibition at 10 µM: NCI/ADR-RES (Ovarian cancer), read-out: GI%; for GI50: NCI/ADR-RES, Ovarian cancer, five-dose
Method in brief: as §1

[19] = test system: OVCAR-4; conditions: Homo sapiens; for inhibition at 10 µM: OVCAR-4 (Ovarian cancer), read-out: GI%; for GI50: OVCAR-4, Ovarian cancer, five-dose
Method in brief: as §1

[20] = test system: OVCAR-8; conditions: Homo sapiens; for inhibition at 10 µM: OVCAR-8 (Ovarian cancer), read-out: GI%; for GI50: OVCAR-8, Ovarian cancer, five-dose
Method in brief: as §1

[21] = test system: RXF 393; conditions: Homo sapiens; for inhibition at 10 µM: RXF 393 (Renal cancer), read-out: GI%; for GI50: RXF 393, Renal cancer, five-dose
Method in brief: as §1

[22] = test system: SK-MEL-28; conditions: Homo sapiens; for inhibition at 10 µM: SK-MEL-28 (Melanoma), read-out: GI%; for GI50: SK-MEL-28, Melanoma, five-dose
Method in brief: as §1

[23] = test system: SK-MEL-2; conditions: Homo sapiens; for inhibition at 10 µM: SK-MEL-2 (Melanoma), read-out: GI%; for GI50: SK-MEL-2, Melanoma, five-dose
Method in brief: as §1

[24] = test system: SK-OV-3; conditions: Homo sapiens; for GI50: SK-OV-3, Ovarian cancer, five-dose
Method in brief: as §1

[25] = test system: SNB-75; conditions: Homo sapiens; for inhibition at 10 µM: SNB-75 (CNS cancer), read-out: GI%; for GI50: SNB-75, CNS cancer, five-dose
Method in brief: as §1

[26] = test system: UACC-257; conditions: Homo sapiens; for inhibition at 10 µM: UACC-257 (Melanoma), read-out: GI%; for GI50: UACC-257, Melanoma, five-dose
Method in brief: as §1

`O=C(NN=Cc1ccccc1O)c1ccc2[nH]c(-c3ccc(Cl)cc3)nc2c1` [8o, 2-(4-Chlorophenyl)-N'-(2-hydroxybenzylidene)-1H-benzo[d]imidazole-5-carbohydrazide] gave an inhibition at 10 µM [1] of over 100%, a GI50 [1] of 830 nM and an inhibition at 10 µM [2] of 53.9%. The GI50 [2] was 8100 nM, the inhibition at 10 µM [3] was 87% and the GI50 [3] was 1800 nM. The inhibition at 10 µM [4] was 94.2%, the GI50 [4] was 810 nM and the inhibition at 10 µM [5] was 60.6%. The GI50 [5] was 3570 nM, the inhibition at 10 µM [6] was over 100% and the GI50 [6] was 220 nM. The inhibition at 10 µM [7] was over 100%, the GI50 [7] was over 38800 nM and the GI50 [8] was 890 nM. It also gave a GI50 [9] of 1080 nM, an inhibition at 10 µM [9] of 98.4% and an inhibition at 10 µM [10] of over 100%. For the same molecule, the GI50 [10] was 200 nM, the inhibition at 10 µM [11] was over 100% and the GI50 [11] was 260 nM. The inhibition at 10 µM [12] was 84.3%, the GI50 [12] was 950 nM and the inhibition at 10 µM [13] was 85.5%. The GI50 [13] was 150 nM, the inhibition at 10 µM [14] was 85.4% and the GI50 [14] was 1240 nM. It also gave an inhibition at 10 µM [15] of over 100%, a GI50 [15] of 1030 nM and an inhibition at 10 µM [16] of over 100%. It also gave a GI50 [16] of 1410 nM, an inhibition at 10 µM [17] of over 100% and a GI50 [17] of 530 nM. The inhibition at 10 µM [18] was 56.4%, the GI50 [18] was 1150 nM and the inhibition at 10 µM [19] was over 100%. The GI50 [19] was 1250 nM, the inhibition at 10 µM [20] was over 100% and the GI50 [20] was 980 nM. The inhibition at 10 µM [21] was over 100%, the GI50 [21] was 790 nM and the inhibition at 10 µM [22] was 78.2%. For the same molecule, the GI50 [22] was 1850 nM, the inhibition at 10 µM [23] was over 100% and the GI50 [23] was 4600 nM. The GI50 [24] was 4530 nM, the inhibition at 10 µM [25] was over 100% and the GI50 [25] was 740 nM. It also gave an inhibition at 10 µM [26] of 42.4% and a GI50 [26] of 7350 nM.
Molecule `COc1ccc(-c2nc3cc(C(=O)NN=Cc4cccc(OC)c4O)ccc3[nH]2)cc1` [8k, N'-(2-Hydroxy-3-methoxybenzylidene)-2-(4-methoxyphenyl)-1H-benzo[d]imidazole-5-carbohydrazide] has an inhibition at 10 µM [1] of over 100%, a GI50 [1] of 3690 nM and an inhibition at 10 µM [2] of under 5%. The GI50 [2] was over 100000 nM, the inhibition at 10 µM [3] was 76.7% and the GI50 [3] was 9040 nM. For the same molecule, the inhibition at 10 µM [4] was 87.7%, the GI50 [4] was 4190 nM and the inhibition at 10 µM [5] was over 100%. It also gave a GI50 [5] of 2850 nM, an inhibition at 10 µM [6] of 84.6% and a GI50 [6] of 3640 nM. For the same molecule, the inhibition at 10 µM [7] was over 100%, the GI50 [7] was 1050 nM and the inhibition at 10 µM ([8]; COLO 205 (Colon cancer), 10 µM, read-out: GI%) was over 100%. The GI50 [8] was 3940 nM, the GI50 [9] was 2900 nM and the inhibition at 10 µM [9] was over 100%. It also gave an inhibition at 10 µM [10] of 78.1%, a GI50 [10] of 3350 nM and an inhibition at 10 µM [11] of 89.3%. The GI50 [11] was 2220 nM, the inhibition at 10 µM [12] was 84.8% and the GI50 [12] was 3520 nM. It also gave an inhibition at 10 µM [13] of over 100%, a GI50 [13] of 3740 nM and an inhibition at 10 µM [14] of over 100%. It also gave a GI50 [14] of 2450 nM, an inhibition at 10 µM [15] of over 100% and a GI50 [15] of 1090 nM. The inhibition at 10 µM [16] was 97.7%, the GI50 [16] was 2800 nM and the inhibition at 10 µM [17] was 76%. The GI50 [17] was 6200 nM, the inhibition at 10 µM [18] was 28.1% and the GI50 [18] was over 100000 nM. The inhibition at 10 µM [19] was 86%, the GI50 [19] was 3260 nM and the inhibition at 10 µM [20] was over 100%. It also gave a GI50 [20] of 2710 nM, an inhibition at 10 µM [21] of over 100% and a GI50 [21] of 2580 nM. It also gave an inhibition at 10 µM [22] of over 100%, a GI50 [22] of 3320 nM and an inhibition at 10 µM [23] of 39.1%. It also gave a GI50 [23] of 6300 nM, an inhibition at 10 µM ([24]; SK-OV-3 (Ovarian cancer), 10 µM, read-out: GI%) of over 100% and a GI50 [24] of 4310 nM. For the same molecule, the inhibition at 10 µM [25] was 91%, the GI50 [25] was 3050 nM and the inhibition at 10 µM [26] was over 100%. The GI50 [26] was 3430 nM.
